Results from patent publication US20250082764A1, “DRUG FOR TREATING TRIPLE NEGATIVE BREAST CANCER” (HINOVA PHARMACEUTICALS INC., priority 2022, published 2025).

What was measured:
Assay type in all cases: cell-based
[1] = system: MDA-MB-453 cells; assay: Inhibition of proliferation of MDA-MB-453 cells by single agents (CCK-8 or CTG); conditions: single agent; co-incubation for 7-10 days
Procedure: Triple negative breast cancer MDA-MB-453 cells in logarithmic growth stage were inoculated into a 96-well plate at a concentration of 4×10^3 cells/well, and then incubated in an incubator at 37° C., 5% CO2, and saturated humidity for 24 h or 48 h. To the negative control well, was added RPMI 1640 cell medium containing 10% fetal bovine serum in the same volume as the drug. After cultured for 24 h or 48 h, to the 96-well plate, were added AR PROTACs compounds 162, 177, 230, 259, 279, 281, 282, 325, 357, 400, ARV-110, ARV-766 and AR inhibitor HC-1119, respectively. The concentrations of compounds 177, 230, 259, 279, 281, 282, 325, 357, 400, ARV-110, and ARV-766 are 0 μM, 0.002 μM, 0.005 μM, 0.014 μM, 0.041 μM, 0.123 μM, 0.370 μM, 1.111μM, 3.333 μM or 10 μM; while the concentrations of HC-1119 are 0 μM, 1.23 μM, 3.70 μM, 11.11 μM, 33.33 μM or 100 μM.
(§1) After addition of the drugs and co-incubation for 7-10 days, 10 μL of CCK-8 was added to each well, and then the plate was further cultured for 2 h. The absorbance value (OD) of each well was measured using a microplate reader at a wavelength of 450 nm. The survival rate was calculated using Prism software, the relative survival rate=(OD value of drug well/OD value of control well)×100%. Alternatively, 100 μL of medium was removed from each well, and then 50 μL of CTG was added. The plate was shaken in the dark for 2 min, allowed to stand for 10 min, and then measured using a microplate reader in Luminescence mode. Prism software was used to calculate the survival rate, the relative survival rate=(the RLU value of drug well/the RLU value of control well)×100%.

[2] = system: MDA-MB-453 cells; assay: Proliferation of MDA-MB-453 cells, AR PROTAC in combination with PI3K inhibitor Alpelisib (Combination Index); conditions: molar ratio of compound to Alpelisib 1:27-9:1; 7 days; synergistic when CI<1
Procedure: Triple negative breast cancer MDA-MB-453 cells in logarithmic growth stage were inoculated into a 96-well plate at a concentration of 4×10^3 cells/well, and then incubated in an incubator at 37° C., 5% CO2, and saturated humidity for 24 h. To the negative control wells, were added RPMI 1640 cell culture medium containing 10% fetal bovine serum in the same volume as the drug. After cultured for 24 h, to the 96-well plate, were sequentially added AR PROTACs compounds 279, 281, 282, ARV-110, ARV-766 and PI3K inhibitor Alpelisib, respectively.
as §1, with “7” for “7-10”

[3] = system: MDA-MB-453 cells; assay: Proliferation of MDA-MB-453 cells, AR PROTAC in combination with PI3K inhibitor Duvelisib (Combination Index); conditions: molar ratio of compound to Duvelisib 1:30-1:1.111; 7-10 days; synergistic when CI<1
Procedure: Triple negative breast cancer MDA-MB-453 cells in logarithmic growth stage were inoculated into a 96-well plate at a concentration of 4×10^3 cells/well, and then incubated in an incubator at 37° C., 5% CO2, and saturated humidity for 24 h. To the negative control wells, were added RPMI 1640 cell culture medium containing 10% fetal bovine serum in the same volume as the drug. After cultured for 24 h, to the 96-well plate, were sequentially added AR PROTACs compounds 279, 281, 282, ARV-110 and PI3K inhibitor Duvelisib, respectively.
as §1, with “adding” for “addition of”, “co-incubating” for “co-incubation”

[4] = system: MDA-MB-453 cells; assay: Proliferation of MDA-MB-453 cells, AR PROTAC in combination with PI3K inhibitor Idelalisib (Combination Index); conditions: molar ratio of compound to Idelalisib 1:270-1:3.333; 7-10 days; synergistic when CI<1
Procedure: Triple negative breast cancer MDA-MB-453 cells in logarithmic growth stage were inoculated into a 96-well plate at a concentration of 4×10^3 cells/well, and then incubated in an incubator at 37° C., 5% CO2, and saturated humidity for 24 h. To the negative control wells, were added RPMI 1640 cell culture medium containing 10% fetal bovine serum in the same volume as the drug. After cultured for 24 h, to the 96-well plate, were sequentially added AR PROTACs compounds 279, 281, 282, ARV-110, ARV-766 and PI3K inhibitor Idelalisib, respectively.
as §1, with “adding” for “addition of”, “co-incubating” for “co-incubation”

[5] = system: MDA-MB-453 cells; assay: Proliferation of MDA-MB-453 cells, AR PROTAC in combination with chemotherapeutic drug Paclitaxel (Combination Index); conditions: molar ratio of compound to Paclitaxel 20:1-5000:1; 7 days; synergistic when CI<1
Procedure: Triple negative breast cancer MDA-MB-453 cells in logarithmic growth stage were inoculated into a 96-well plate at a concentration of 4×10^3 cells/well, and then incubated in an incubator at 37° C., 5% CO2, and saturated humidity for 24 h. To the negative control wells, were added RPMI 1640 cell culture medium containing 10% fetal bovine serum in the same volume as the drug. After cultured for 24 h, to the 96-well plate, were sequentially added AR PROTACs compounds 279, 281, 282, ARV-110 and chemotherapeutic drug Paclitaxel, respectively.
as §1, with “adding” for “addition of”, “co-incubating” for “co-incubation”, “7” for “7-10”

## N#Cc1ccc(O[C@H]2CC[C@H](NC(=O)c3cnc(N4CCC(CN5CCC6(CC5)CN(c5ccc7c(c5)C(=O)N(C5CCC(=O)NC5=O)C7=O)C6)CC4)nn3)CC2)cc1Cl (some centres unmarked) [Compound 279]
[1]
  inhibitory effect on the proliferation of MDA-MB-453 cells (in words): inhibit the proliferation of MDA-MB-453 cells to varying degrees
[2]
  effect of drug combination with Alpelisib on inhibiting the proliferation of MDA-MB-453 cells: synergistic effect
[3]
  effect of drug combination with Duvelisib on inhibiting the proliferation of MDA-MB-453 cells: synergistic effect
[4]
  effect of drug combination with Idelalisib on inhibiting the proliferation of MDA-MB-453 cells: synergistic effect
[5]
  effect of drug combination with Paclitaxel on inhibiting the proliferation of MDA-MB-453 cells: synergistic effect
